From patent US9878046B2, “Adverse side-effects associated with administration of an anti-hyaluronan agent and methods for ameliorating or preventing the side-effects” (Halozyme, Inc., priority 2010, dated 2018)

How the values were obtained:
[1] = system: PC3 prostate carcinoma cell line; assay: Antitumor activity in PC3 prostate cancer xenograft model; format: in vivo, human (xenograft in athymic male nude mice)
Protocol: Tumor cells from the PC3 prostate carcinoma cell line were grown to approximately 80% confluency then trypsinized, collected, washed once in HBSS (Hank's balance salt solution, Mediatech Inc.), then re-suspended in 50% Matrigel® in HBSS at 2×10^7 cells/mL on ice before inoculation into animals. Athymic male nude mice (Nu/Nu (Ncr); Taconic Farms; average weight ˜20 g) were inoculated intramuscularly (IM) with 0.05 mL of this cell suspension, peritibially, in the left hind leg (adjacent to the tibia periosteum). The implants in the animals were assessed twice a week and allowed to grow to a mean tumor volume of approximately 500 mm^3 (Day −2; Table 12). Actual tumor volumes were determined using VisualSonics Vevo 770 high-resolution ultrasound, using two perpendicular axial dimensions.
Animals were sorted randomly and grouped into 6 groups of 8 mice per group (6+2 satellite mice). Treatment groups were vehicle (API buffer), PEGPH20 (157,500 Units/kg, 4.5 mg/kg), low dose dexamethasone (1.25 mg/kg), high dose dexamethasone (5 mg/kg), PEGPH20 (4.5 mg/kg)+low dose dexamethasone (1.25 mg/kg) and PEGPH20 (4.5 mg/kg)+high dose dexamethasone (5 mg/kg). The dose and frequency of the PEGPH20 (or vehicle) intravenous injections was 157,500 Units/kg or approximately 4.5 mg/kg, every 3rd day starting on Day 0 (Days 0, 3, 6, 9, 12) with a total of 5 injections (Q3Dx5) with a dose volume of 0.1 mL. This dosing and frequency regimen was previously shown to inhibit xenograft tumor growth by 34-70%. The doses and frequency of the dexamethasone intraperitonal injections were 1.25 mg/kg at the low dose and 5 mg/kg at the high dose, once a day until Day 13 (QDx13) with a dose volume of 0.1 mL.
The tumor volumes of all mice were measured pre-treatment on Day −2 (average tumor volume of ˜500 mm^3) and on Day 1, 6, 9, 13, 16 and 20 by capturing images using the VisualSonic ultrasound system and using an ultrasound imaging software program to calculate tumor volume (Table 12).

[2] = system: BxPC3 pancreatic cancer cell line; assay: Antitumor activity in BxPC3 pancreatic cancer xenograft model; format: in vivo, human (xenograft in athymic female nude mice)
Protocol: Tumor cells from the BxPC3 pancreatic cancer cell line were grown to approximately 80% confluency, trypsinized, collected, washed once in HBSS (Hank's balance salt solution, Mediatech Inc.), and re-suspended in 50% Matrigel in HBSS at 2×10^7 cells/mL on ice before inoculation into animals. Athymic female nude mice (average weight ˜20 g) were inoculated intramuscularly (IM) with 0.05 mL of cell suspension, peritibially, in the left hind leg (adjacent to the tibia periosteum). The tumors in the animals were assessed twice a week and allowed to grow to a mean tumor volume of approximately 250 mm^3 (Day −1; Table 13). Actual tumor volumes were determined using VisualSonics Vevo 770 high-resolution ultrasound.
The animals were randomly grouped into 6 groups of 8 animals per group (6+2 satellite mice) and treated with vehicle (API buffer), PEGPH20 (157,500 Units/kg, 4.5 mg/kg), low dose dexamethasone (1.25 mg/kg), high dose dexamethasone (5 mg/kg), PEGPH20 (4.5 mg/kg)+low dose dexamethasone (1.25 mg/kg) and PEGPH20 (4.5 mg/kg)+high dose dexamethasone (5 mg/kg). The dose and frequency of the PEGPH20 (or vehicle) intravenous injections was 157,500 Units/kg or approximately 4.5 mg/kg, on Days 0, 3, 7, 10, 13 and 17 for a total of 6 injections starting on Day 0 (dose volume of 0.1 mL). The doses and frequency of the dexamethasone intraperitonal injections was 1.25 mg/kg at the low dose and 5 mg/kg at the high dose, once a day until Day 17 (QDx17) with a dose volume of 0.1 mL.
The tumor volumes of all mice were measured pre-treatment on Days −4 and −1 (mean tumor volume of ˜250 mm^3) and on Days 4, 7, 11, 14 and 17 by capturing images using the VisualSonic ultrasound system and using an ultrasound imaging software program to calculate the tumor volume (Table 13). The percent tumor growth inhibition (% TGI) was calculated as described above in Example 9A.

C[C@@H]1C[C@H]2[C@@H]3CCC4=CC(=O)C=C[C@]4(C)[C@@]3(F)[C@@H](O)C[C@]2(C)[C@@]1(O)C(=O)CO [Dexamethasone]
Tumor volume ([1]; Day 1, PEGPH20 4.5 mg/kg IV Q3Dx5 and/or dexamethasone 1.25 mg/kg IP QDx13): 636.98 mm^3
Tumor volume ([1]; Day 1, dexamethasone 5 mg/kg IP QDx13, alone or + PEGPH20 4.5 mg/kg IV Q3Dx5): 633.84 mm^3
Tumor volume ([1]; Day 6, PEGPH20 4.5 mg/kg IV Q3Dx5 and/or dexamethasone 1.25 mg/kg IP QDx13): 727.80 mm^3
Tumor volume ([1]; Day 6, dexamethasone 5 mg/kg IP QDx13, alone or + PEGPH20 4.5 mg/kg IV Q3Dx5): 854.90 mm^3
Tumor volume ([1]; Day 9, PEGPH20 4.5 mg/kg IV Q3Dx5 and/or dexamethasone 1.25 mg/kg IP QDx13): 964.35 mm^3
Tumor volume ([1]; Day 9, dexamethasone 5 mg/kg IP QDx13, alone or + PEGPH20 4.5 mg/kg IV Q3Dx5): 995.47 mm^3
Tumor volume ([1]; Day 13, PEGPH20 4.5 mg/kg IV Q3Dx5 and/or dexamethasone 1.25 mg/kg IP QDx13): 1202.35 mm^3
Tumor volume ([1]; Day 13, dexamethasone 5 mg/kg IP QDx13, alone or + PEGPH20 4.5 mg/kg IV Q3Dx5): 1211.50 mm^3
Tumor volume ([1]; Day 16, PEGPH20 4.5 mg/kg IV Q3Dx5 and/or dexamethasone 1.25 mg/kg IP QDx13): 1401.91 mm^3
Tumor volume ([1]; Day 16, dexamethasone 5 mg/kg IP QDx13, alone or + PEGPH20 4.5 mg/kg IV Q3Dx5): 1455.27 mm^3
Tumor volume ([1]; Day 20, PEGPH20 4.5 mg/kg IV Q3Dx5 and/or dexamethasone 1.25 mg/kg IP QDx13): 1792.92 mm^3
Tumor volume ([1]; Day 20, dexamethasone 5 mg/kg IP QDx13, alone or + PEGPH20 4.5 mg/kg IV Q3Dx5): 1840.11 mm^3
Tumor volume ([1]; Day −2 (pre-treatment), PEGPH20 4.5 mg/kg IV Q3Dx5 and/or dexamethasone 1.25 mg/kg IP QDx13): 486.88 mm^3
Tumor volume ([1]; Day −2 (pre-treatment), dexamethasone 5 mg/kg IP QDx13, alone or + PEGPH20 4.5 mg/kg IV Q3Dx5): 516.25 mm^3
Tumor volume ([2]; Day 4, PEGPH20 4.5 mg/kg IV x6 and/or dexamethasone 1.25 mg/kg IP QDx17): 463.51 mm^3
Tumor volume ([2]; Day 4, dexamethasone 5 mg/kg IP QDx17, alone or + PEGPH20 4.5 mg/kg IV x6): 396.26 mm^3
Tumor volume ([2]; Day 7, PEGPH20 4.5 mg/kg IV x6 and/or dexamethasone 1.25 mg/kg IP QDx17): 609.40 mm^3
Tumor volume ([2]; Day 7, dexamethasone 5 mg/kg IP QDx17, alone or + PEGPH20 4.5 mg/kg IV x6): 379.39 mm^3
% TGI (% Tumor Growth Inhibition) ([2]; Day 7, dexamethasone 5 mg/kg alone or + PEGPH20 4.5 mg/kg): 53%
Tumor volume ([2]; Day 11, PEGPH20 4.5 mg/kg IV x6 and/or dexamethasone 1.25 mg/kg IP QDx17): 732.92 mm^3
Tumor volume ([2]; Day 11, dexamethasone 5 mg/kg IP QDx17, alone or + PEGPH20 4.5 mg/kg IV x6): 481.54 mm^3
% TGI (% Tumor Growth Inhibition) ([2]; Day 11, dexamethasone 5 mg/kg alone or + PEGPH20 4.5 mg/kg): 49%
Tumor volume ([2]; Day 14, PEGPH20 4.5 mg/kg IV x6 and/or dexamethasone 1.25 mg/kg IP QDx17): 796.84 mm^3
Tumor volume ([2]; Day 14, dexamethasone 5 mg/kg IP QDx17, alone or + PEGPH20 4.5 mg/kg IV x6): 603.82 mm^3
% TGI (% Tumor Growth Inhibition) ([2]; Day 14, dexamethasone 5 mg/kg alone or + PEGPH20 4.5 mg/kg): 46%
Tumor volume ([2]; Day 17, PEGPH20 4.5 mg/kg IV x6 and/or dexamethasone 1.25 mg/kg IP QDx17): 933.86 mm^3
Tumor volume ([2]; Day 17, dexamethasone 5 mg/kg IP QDx17, alone or + PEGPH20 4.5 mg/kg IV x6): 720.95 mm^3
% TGI (% Tumor Growth Inhibition) ([2]; Day 17, dexamethasone 5 mg/kg alone or + PEGPH20 4.5 mg/kg): 50%
Tumor volume ([2]; Day −1 (pre-treatment), PEGPH20 4.5 mg/kg IV x6 and/or dexamethasone 1.25 mg/kg IP QDx17): 312.65 mm^3
Tumor volume ([2]; Day −1 (pre-treatment), dexamethasone 5 mg/kg IP QDx17, alone or + PEGPH20 4.5 mg/kg IV x6): 231.18 mm^3
Tumor volume ([2]; Day −4 (pre-treatment), PEGPH20 4.5 mg/kg IV x6 and/or dexamethasone 1.25 mg/kg IP QDx17): 202.85 mm^3
Tumor volume ([2]; Day −4 (pre-treatment), dexamethasone 5 mg/kg IP QDx17, alone or + PEGPH20 4.5 mg/kg IV x6): 197.29 mm^3
